Tests used:
[1] = molecular target: T1, human adrenergic α1A receptor (Homo sapiens, UniProt P35348); experiment: Agonistic/antagonistic activity in G protein dependent pathway (aequorin intracellular calcium luminescence), α1A; format: cell-based; conditions: for Maximal activity on each receptor (%): α1A: 10 μM adrenaline = 100%; for inhibition at 0.1 µM / inhibition at 1 µM: against 10 μM endogenous ligand, read-out: Inhibitory activity on each receptor (%): α1A
T1 construct: expressed in transfected cells; host or cells: CHO-K1 or HEK293 cells
T1 sequence (P35348 1-466): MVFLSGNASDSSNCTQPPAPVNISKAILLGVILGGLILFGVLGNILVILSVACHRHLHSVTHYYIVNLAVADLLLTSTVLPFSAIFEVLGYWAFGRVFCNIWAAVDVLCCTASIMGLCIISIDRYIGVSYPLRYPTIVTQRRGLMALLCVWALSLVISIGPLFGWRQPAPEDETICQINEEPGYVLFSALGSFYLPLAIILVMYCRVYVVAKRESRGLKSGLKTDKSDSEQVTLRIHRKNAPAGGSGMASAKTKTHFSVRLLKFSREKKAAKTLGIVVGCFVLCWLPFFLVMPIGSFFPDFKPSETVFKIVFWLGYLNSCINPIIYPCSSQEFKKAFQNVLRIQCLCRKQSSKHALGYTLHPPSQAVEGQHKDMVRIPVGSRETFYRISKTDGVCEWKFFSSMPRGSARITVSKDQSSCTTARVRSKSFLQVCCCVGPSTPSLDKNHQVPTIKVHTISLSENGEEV
Description: Plasmids encoding each receptor, aequorin and Gα16 were prepared, and the plasmids were transfected into CHO cells (Chinese Hamster Ovary cells) or HEK293 cells (Human Embryonic Kidney 293 cells) to prepare expressing cell lines.
The agonistic or antagonistic activity of the present compound in the G protein dependent pathway was evaluated on the basis of intracellular calcium levels as follows. CHO-K1 or HEK293 cell lines transfected with D2, D4, α1A, or α2A receptor genes were seeded in a 384-well plate, and incubated in a CO2 incubator at 37° C. for 24 hours, and then a solution of the present compound in DMSO was added into cells preloaded with coelenterazine to measure the change in luminescent signals with a FDSS (Hamamatsu Photonics K.K.). […] The agonistic activity of the present compound was calculated according to the measured luminescent signals, as the maximal activity (Emax) of the present compound. On the other hand, the antagonistic activity of the present compound was calculated according to the luminescent signals in wells with 10 μM of an endogenous ligand alone defined as 100%, as the inhibitory activity of the present compound to an endogenous ligand. EC50 value was calculated as the concentration of the present compound required to achieve a 50% response, and IC50 was calculated as the concentration of the present compound required to achieve a 50% inhibition of the Emax of an endogenous ligand.

[2] = test system: rat after prenatal exposure to valproic acid; experiment: Social impairments in rat after prenatal exposure to valproic acid, three-chamber test; format: in vivo; conditions: oral, 1 mg/kg
Description: A rat exposed to valproic acid on the 12.5 days of fetal life has been widely used as an autistic rat model with high validity. It is known that the rat has a social cognitive disorder through the three-chamber test which is a test for evaluating sociability. Thus, the rat was pretreated with the present compound to evaluate the improved effect of the present compound on social cognition. In this study, a sociability cage (600 mm×400 mm×220 mm, Muromachi Kikai Co., Ltd.) was used. Specifically, a 3-week-old rat after prenatal exposure to valproic acid received the oral administration of the present compound, and the time that the rat stayed in close to another rat side or a novel object was measured for 10 minutes from 30 minutes after the administration. The ratio of the time for another rat side to the time for a novel object that is defined as 100% was calculated to evaluate the improvement ratio (%) of the present compound on the basis of the result of the vehicle-treated group. The improvement ratio after the oral administration of the compound of Example 5 (1 mg/kg) was 27.6%.

SHR rat = experiment: Inattention in SHR rat, Y-shaped maze test; format: in vivo; conditions: oral, 1 mg/kg
Description: It is known that a SHR rat has a lower spontaneous alternation behavior ratio than a WKY rat which is a background animal through the Y-shaped maze test. Thus, the SHR rat was pretreated with the present compound to evaluate the pharmacological effect of the present compound on attention function. Specifically, a 4-week-old SHR rat received the oral administration of the present compound, and a spontaneous alternation behavior ratio in the rat was measured for 8 minutes from 30 minutes after the administration. The improved spontaneous alternation behavior ratio (%) was calculated as a numerical value on the basis of the spontaneous alternation behavior ratio in the vehicle administration group. In this study, a Y-shaped maze device (black acrylic: 450 mm×100 mm×350 mm, Horikawa Manufacturing Co., Ltd.) was used.

| SMILES | Maximal activity on each receptor (%): α1A ([1]; 0.1 μM) [%] | inhibition at 0.1 µM ([1]; 0.1 μM) [%] | Maximal activity on each receptor (%): α1A ([1]; 1 μM) [%] | inhibition at 1 µM ([1]; 1 μM) [%] | time that the rat stayed in close to another rat side [2] | improvement ratio (%) ([2]; time for another rat side vs novel object, relative to vehicle) | spontaneous alternation behavior ratio (SHR rat) |
| --- | --- | --- | --- | --- | --- | --- | --- |
| Cc1ncc(CN2CCC(c3cncc(F)c3)CC2)cn1 [Example 33, 5-[4-(5-Fluoropyridin-3-yl)piperidin-1-ylmethyl]-2-methylpyrimidine] | 0.4 | -34 | 0.85 | -5.4 |  |  |  |
| Cc1ncc(CN2CCC(c3ccccn3)CC2)c(N)n1 [Example 5, 2-Methyl-5-[4-(pyridin-2-yl)piperidin-1-ylmethyl]pyrimidin-4-amine] | 2.1 | 2.1 | −0.1 | -1.7 | significantly increased | 27.6 | significantly improved |
| Nc1ncc(CN2CCC(c3cccnc3)CC2)cn1 [Example 37] | 0.31 | -22 | 0.44 | -14 |  |  |  |

— patent US9732065B2, “Cyclic aminomethyl pyrimidine derivative” (Sumitomo Dainippon Pharma Co., Ltd., priority 2013, dated 2017)
